Square brackets hold non-standard residues; d marks the D form. Ends that are not written are not given here. Lys(Me3) = C[N+](C)(C)CCCC[C@H](N)C(=O)O
System: KDM4A
Experiment: 1H NMR activity assay (time course)
Type: biochemical, human
Conditions: KDM4A 10 μM, peptide 400 μM, 2OG 400 μM, Fe(II) 100 μM, ascorbate 1 mM, 50 mM ammonium formate pH 7.5, 500 mM NaCl, 700 MHz
Protocol: The NMR analyses employed a Bruker Avance III 700 MHz spectrometer with an inverse TCI cryoprobe optimised for ^1H observation and were carried out as previously described 6. Samples (KDM4A (10 μM), 2OG (400 μM), H1.4(18–32)K26me3 peptide (400 μM), Fe(II) ammonium sulfate (100 μM) and ascorbate (1 mM) in 50 mM ammonium formate, pH 7.5, 500 mM NaCl in 10% v/v D2O) were prepared in a microcentrifuge tube (total volume = 75 μL), before being transferred to an NMR tube. The samples were then analysed over time using automated routines; each time‐point corresponded to one experiment accumulating 16 transients (89 s total acquisition time per experiment). The solvent resonance was depleted by excitation sculpting using a 180° sinc pulse (duration = 2 ms) 30.
Studies then focused on determining the proficiency of H1.4K26 demethylation by the KDM4 enzymes.

Substance: TPVKKKAR[Lys(Me3)]SAGAAK [H1.4(18–32)K26me3, peptide of residues 18–32 of histone H1.4 with N ε-trimethyllysine at K26]
- demethylation of the Kme3 residue by 1H NMR (result in words): time‐dependent demethylation
